Results: ChEMBL document CHEMBL1132184, “Two-stage method for protein-ligand docking” (J Med Chem, 1999)

Biological target: Prothrombin (Homo sapiens, UniProt P00734)
Experiment: Binding affinity against thrombin

Ki: 0.27 nM
SMILES: N=C(N)C[C@H]1CC[C@@H](NC(=O)[C@@H]2CCCN2C(=O)[C@@H](Cc2ccccc2)NS(=O)(=O)Cc2ccccc2)CC1
